Source: ChEMBL document CHEMBL1138296, “Synthesis and biological evaluation of alpha-halogenated bisphosphonate and phosphonocarboxylate analogues of risedronate” (J Med Chem, 2007)
Calls of active or inactive are those of the source. The rule behind the calls is not given here.

What was measured:
[1] = test system: J744; experiment: Inhibition of RGGT mediated Rab11 prenylation in […] cells; type: cell-based; conditions: Mus musculus
[2] = Reduction of viability of mouse […] cells after 48 hrs; type: cell-based
[3] = Bone mineral affinity on hydroxyaptite assessed as retention time by chromatography; type: functional
[4] = Inhibition of RGGT; parameters: species or system Homo sapiens
[5] = molecular target: T1, Farnesyl pyrophosphate synthase (Homo sapiens, UniProt P14324); experiment: Inhibition of human cloned FPPS expressed in Escherichia col […]
T1 sequence (P14324 whole entry): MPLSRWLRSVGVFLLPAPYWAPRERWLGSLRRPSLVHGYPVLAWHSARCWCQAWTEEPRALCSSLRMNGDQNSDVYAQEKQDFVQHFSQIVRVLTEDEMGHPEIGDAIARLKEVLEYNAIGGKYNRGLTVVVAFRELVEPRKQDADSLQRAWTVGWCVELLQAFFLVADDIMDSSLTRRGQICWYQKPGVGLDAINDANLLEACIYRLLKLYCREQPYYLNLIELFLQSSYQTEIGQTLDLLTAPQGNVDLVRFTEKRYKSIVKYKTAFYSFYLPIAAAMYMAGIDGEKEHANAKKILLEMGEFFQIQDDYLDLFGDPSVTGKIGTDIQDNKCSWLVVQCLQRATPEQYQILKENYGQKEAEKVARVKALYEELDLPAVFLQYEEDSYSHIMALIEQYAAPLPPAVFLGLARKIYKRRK

[6] = test system: J744; experiment: Inhibition of RGGT mediated Rap1A prenylation in […] cells; type: cell-based; conditions: Mus musculus

Structure (SMILES)	IC50 [4] [µM]	IC50 [5] [µM]	MED [1] [µM]	IC50 [2] [µM]	Activity [3]	MED [6] [µM]	TIME [3] [h]
O=P(O)(O)C(Cl)(Cc1cccnc1)P(=O)(O)O		0.0946		679		400	0.101
O=P(O)(O)C(Br)(Cc1cccnc1)P(=O)(O)O		0.34		673		400	0.0955
O=P(O)(O)C(O)(Cc1cccnc1)P(=O)(O)O [RISEDRONIC ACID]				31		12	0.166
O=P(O)(O)C(Cc1cccnc1)P(=O)(O)O		0.0342		212		50	0.0972

Continued, in another order:

IC50 [4] [µM]	IC50 [5] [µM]	Structure (SMILES)	MED [1] [µM]	IC50 [2] [µM]	Activity [3]	MED [6] [µM]	TIME [3] [h]
35.3		O=C(O)C(Cc1cccnc1)P(=O)(O)O (stereo not drawn)	62	2.6	inactive		
	0.0164	O=P(O)(O)C(F)(Cc1cccnc1)P(=O)(O)O		140		100	0.0988
16.3	> 600	O=C(O)C(F)(Cc1cccnc1)P(=O)(O)O (stereo not drawn)	31	1.8	inactive		
17.7	> 60	O=C(O)C(Br)(Cc1cccnc1)P(=O)(O)O (stereo not drawn)	125	5.5	inactive		
16.4	> 600	O=C(O)C(Cl)(Cc1cccnc1)P(=O)(O)O (stereo not drawn)	125	5	inactive		
24.1	254	O=C(O)[C@@](O)(Cc1cccnc1)P(=O)(O)O	62	2.3			0.0767
